According to ChEMBL document CHEMBL1141107, “A novel series of non-carboxylic acid, non-hydantoin inhibitors of aldose reductase with potent oral activity in diabetic rat models: 6-(5-chloro-3-methylbenzofuran-2-sulfonyl)-2H-pyridazin-3-one and congeners” (J Med Chem, 2005):

Experiments:
[1] = biological target: Aldo-keto reductase family 1 member B1 (Homo sapiens, UniProt P15121); assay: In vitro inhibitroy concentration against Aldose reductase incubated at 24 degree C for 15 minutes in pH 7.0
Rattus norvegicus [2] = assay: Inhibition of fructose accumulation in diabetic rat after oral gavage administration incubated at RT for 60 minutes in pH 4.5 by acute test dosed at 10 mg/kg; type: functional; conditions: 1 h
Rattus norvegicus [3] = assay: Inhibition of fructose accumulation in diabetic rat after oral gavage administration incubated at RT for 60 minutes in pH 4.5 by acute test dosed at 20 mg/kg; type: functional; conditions: 1 h
Rattus norvegicus [4] = assay: Inhibition of sorbitol accumulation in diabetic rat by acute test dosed at 10 mg/kg; type: functional
Rattus norvegicus [5] = assay: Inhibition of sorbitol accumulation in diabetic rat by acute test dosed at 20 mg/kg; type: functional
Rattus norvegicus [6] = assay: Inhibition of sorbitol accumulation in diabetic rat by acute test dosed at 50 mg/kg; type: functional
Rattus norvegicus [7] = assay: Inhibition of fructose accumulation in diabetic rat after oral gavage administration, pH 4.5 by chronic test dosed at 20 mg/kg; type: functional
Rattus norvegicus [8] = assay: Inhibition of sorbitol accumulation in diabetic rat by chronic test dosed at 20 mg/kg; type: functional
Rattus norvegicus [9] = assay: Inhibition of fructose accumulation in diabetic rat after oral gavage administration, pH 4.5 by chronic test; type: functional
Rattus norvegicus [10] = species: Rattus norvegicus; assay: Inhibition of sorbitol accumulation in diabetic rat by chronic test; type: functional
Rattus norvegicus [11] = assay: Inhibition of fructose accumulation in diabetic rat after oral gavage administration incubated at RT for 60 minutes in pH 4.5 by acute test dosed at 5 mg/kg; type: functional; conditions: 1 h
Rattus norvegicus [12] = assay: Inhibition of fructose accumulation in diabetic rat after oral gavage administration, pH 4.5 by chronic test dosed at 5 mg/kg; type: functional
Rattus norvegicus [13] = assay: Inhibition of sorbitol accumulation in diabetic rat by acute test dosed at 5 mg/kg; type: functional
Rattus norvegicus [14] = assay: Inhibition of sorbitol accumulation in diabetic rat by chronic test dosed at 5 mg/kg; type: functional
Rattus norvegicus [15] = assay: Inhibition of fructose accumulation in diabetic rat after oral gavage administration, pH 4.5 by chronic test dosed at 10 mg/kg; type: functional
Rattus norvegicus [16] = assay: Inhibition of sorbitol accumulation in diabetic rat by chronic test dosed at 10 mg/kg; type: functional
Rattus norvegicus [17] = assay: Inhibition of fructose accumulation in diabetic rat after oral gavage administration incubated at RT for 60 minutes in pH 4.5 by chronic test 10 mg/kg; conditions: 1 h
Rattus norvegicus [18] = assay: Inhibition of fructose accumulation in diabetic rat after oral gavage administration incubated at RT for 60 minutes in pH 4.5 by chronic test 30 mg/kg; conditions: 1 h
Rattus norvegicus [19] = species: Rattus norvegicus; assay: Dose required for inhibition of sorbitol accumulation in diabetic rat by acute test; type: functional
Rattus norvegicus [20] = assay: Dose required for fructose accumulation in diabetic rat after oral gavage administration incubated at RT for 60 minutes in pH 4.5 by acute test; type: functional
Rattus norvegicus [21] = assay: Inhibition of fructose accumulation in diabetic rat after oral gavage administration incubated at RT for 60 minutes in pH 4.5 by acute test dosed at 3 mg/kg; type: functional; conditions: 1 h
Rattus norvegicus [22] = assay: Inhibition of sorbitol accumulation in diabetic rat by acute test dosed at 3 mg/kg; type: functional
Rattus norvegicus [23] = assay: Inhibition of sorbitol accumulation in diabetic rat by acute test dosed at 30 mg/kg; type: functional
Rattus norvegicus [24] = assay: Inhibition of sorbitol accumulation in diabetic rat by chronic test does at 20 mg/kg; type: functional
Rattus norvegicus [25] = assay: Inhibition of fructose accumulation in diabetic rat after oral gavage administration incubated at RT for 60 minutes in pH 4.5 by acute test; dosed at 10 mg/kg; type: functional; conditions: 1 h
Rattus norvegicus [26] = assay: Inhibition of fructose accumulation in diabetic rat after oral gavage administration incubated at RT for 60 minutes in pH 4.5 by acute test; dosed at 20 mg/kg; type: functional; conditions: 1 h
Rattus norvegicus [27] = assay: Inhibition of sorbitol accumulation in diabetic rat by acute test; dosed at 10 mg/kg; type: functional
Rattus norvegicus [28] = assay: Inhibition of sorbitol accumulation in diabetic rat by acute test; dosed at 20 mg/kg; type: functional

SMILES | IC50 [1] [nM] | inhibition in vivo at 10 mg/kg (Rattus norvegicus [2]) [%] | inhibition in vivo at 20 mg/kg (Rattus norvegicus [3]) [%] | inhibition in vivo at 20 mg/kg (Rattus norvegicus [5]) [%] | further results
O=c1ccc(S(=O)(=O)c2cc3ccc(F)cc3[nH]2)n[nH]1 | 1400 |  |  |  | 
O=S(=O)(c1ccc(O)nn1)c1ccccc1Cl |  | 68 | 81 | 101 | inhibition in vivo at 10 mg/kg (Rattus norvegicus [4]): 96%
O=c1ccc(S(=O)(=O)c2cc3cc(Cl)ccc3[nH]2)n[nH]1 | 1100 |  |  |  | 
O=c1ccc(S(=O)(=O)c2ccc(F)cc2)n[nH]1 | 474 |  |  |  | inhibition in vivo at 50 mg/kg (Rattus norvegicus [6]): 81%
COc1ccc2oc(S(=O)(=O)c3ccc(=O)[nH]n3)cc2c1 | 230 |  | 34 | 49 | 
O=c1ccc(S(=O)(=O)c2cc3ccccc3[nH]2)n[nH]1 | 590 | 58 | 82 | 100 | inhibition in vivo at 20 mg/kg (Rattus norvegicus [7]): 50%; inhibition in vivo at 10 mg/kg (Rattus norvegicus [4]): 75%; inhibition in vivo at 20 mg/kg (Rattus norvegicus [8]): 67%
O=c1ccc(S(=O)(=O)c2cc3cc4c(cc3[nH]2)OCO4)n[nH]1 | 3800 |  |  |  | 
CC(C)c1c(S(=O)(=O)c2ccc(O)nn2)oc2ccc(Cl)cc12 | 92 |  |  |  | Inhibition (Rattus norvegicus [9]): 14%; Inhibition (Rattus norvegicus [10]): 48%
O=c1ccc(S(=O)(=O)c2cc3cc(Cl)cc(Cl)c3[nH]2)n[nH]1 | 200 |  |  |  | 
O=S(=O)(Cc1cccc(Cl)c1F)c1ccc(O)nn1 | 54 |  | 64 | 74 | 
Cc1c(S(=O)(=O)c2ccc(O)nn2)oc2cc(Cl)ccc12 | 190 | 28 |  |  | inhibition in vivo at 10 mg/kg (Rattus norvegicus [4]): 40%
O=c1ccc(S(=O)(=O)c2cc3cc(Cl)cc(Cl)c3o2)n[nH]1 | 87 | 39 |  |  | inhibition in vivo at 10 mg/kg (Rattus norvegicus [4]): 32%
Cc1c(S(=O)(=O)c2ccc(O)nn2)oc2ccccc12 | 140 | 43 | 56 |  | 
Cc1ccc2sc(S(=O)(=O)c3ccc(O)nn3)cc2c1 | 160 |  | 7 |  | 
O=c1ccc(S(=O)(=O)c2cc3cccc(Cl)c3[nH]2)n[nH]1 | 450 |  | 44 | 40 | 
O=c1ccc(S(=O)(=O)Cc2cccc(Cl)c2Cl)n[nH]1 | 35 |  | 48 | 65 | 
O=c1ccc(S(=O)(=O)c2cc3cc(Cl)ccc3o2)n[nH]1 |  | 39 |  |  | 
O=S(=O)(Cc1cccc(C(F)(F)F)c1)c1ccc(O)nn1 | 72 |  | 70 | 88 | inhibition in vivo at 20 mg/kg (Rattus norvegicus [7]): 42%; inhibition in vivo at 20 mg/kg (Rattus norvegicus [8]): 65%
O=S(=O)(c1cc(Cl)cc(Cl)c1)c1ccc(O)nn1 |  |  | 49 | 91 | inhibition in vivo at 5 mg/kg (Rattus norvegicus [11]): 32%; inhibition in vivo at 5 mg/kg (Rattus norvegicus [12]): 30%; inhibition in vivo at 20 mg/kg (Rattus norvegicus [7]): 38%; inhibition in vivo at 5 mg/kg (Rattus norvegicus [13]): 68%; inhibition in vivo at 5 mg/kg (Rattus norvegicus [14]): 63%; inhibition in vivo at 20 mg/kg (Rattus norvegicus [8]): 73%
O=c1ccc(S(=O)(=O)Cc2ccc(Br)cc2F)n[nH]1 | 667 |  |  |  | 
O=S(=O)(c1cccc(Cl)c1)c1ccc(O)nn1 | 240 |  |  |  | 
O=c1ccc(S(=O)(=O)c2ccc(C(F)(F)F)cc2)n[nH]1 | 360 | 10 | 24 | 67 | inhibition in vivo at 10 mg/kg (Rattus norvegicus [4]): 44%
O=c1ccc(S(=O)(=O)c2ccccc2F)n[nH]1 | 540 | 34 | 56 | 91 | inhibition in vivo at 10 mg/kg (Rattus norvegicus [4]): 79%
O=c1ccc(S(=O)(=O)c2oc3ccc(Cl)cc3c2-c2ccccc2)n[nH]1 | 34 |  | 20 | 27 | 
O=c1ccc(S(=O)(=O)Cc2cccc(C(F)(F)F)c2F)n[nH]1 | 44 |  | 56 | 61 | 
O=S(=O)(c1ccc(O)nn1)c1ccc(F)cc1Cl |  | 87 | 97 | 106 | inhibition in vivo at 10 mg/kg (Rattus norvegicus [4]): 95%
O=S(=O)(Cc1cccc(F)c1F)c1ccc(O)nn1 | 257 |  | 51 | 82 | 

SMILES | IC50 [1] [nM] | inhibition in vivo at 10 mg/kg (Rattus norvegicus [2]) [%] | inhibition in vivo at 20 mg/kg (Rattus norvegicus [3]) [%] | inhibition in vivo at 20 mg/kg (Rattus norvegicus [5]) [%] | further results
O=c1ccc(S(=O)(=O)Cc2c(F)cccc2Cl)n[nH]1 | 26 |  | 45 | 42 | 
O=c1ccc(S(=O)(=O)c2cccc(C(F)(F)F)c2)n[nH]1 | 175 |  | 17 | 45 | 
O=c1ccc(S(=O)(=O)c2cccc3ccccc23)n[nH]1 | 150 | 49 | 55 | 95 | inhibition in vivo at 10 mg/kg (Rattus norvegicus [15]): 31%; inhibition in vivo at 20 mg/kg (Rattus norvegicus [7]): 43%; inhibition in vivo at 10 mg/kg (Rattus norvegicus [4]): 88%; inhibition in vivo at 20 mg/kg (Rattus norvegicus [8]): 70%; inhibition in vivo at 10 mg/kg (Rattus norvegicus [16]): 60%
O=c1ccc(S(=O)(=O)c2ccc(Br)cc2)n[nH]1 | 350 |  |  |  | inhibition in vivo at 50 mg/kg (Rattus norvegicus [6]): 26%
O=c1ccc(S(=O)(=O)c2cccc(F)c2F)n[nH]1 | 390 |  |  |  | inhibition in vivo at 10 mg/kg (Rattus norvegicus [17]): 50%; inhibition in vivo at 30 mg/kg (Rattus norvegicus [18]): 81%
CCc1c(S(=O)(=O)c2ccc(O)nn2)oc2ccc(Cl)cc12 | 6 |  |  |  | inhibition in vivo at 10 mg/kg (Rattus norvegicus [15]): 24%; inhibition in vivo at 10 mg/kg (Rattus norvegicus [16]): 48%
O=c1ccc(S(=O)(=O)c2cc3ccccc3s2)n[nH]1 | 180 |  | 22 | 46 | 
O=S(=O)(c1ccc(Cl)c(Cl)c1)c1ccc(O)nn1 |  | 60 | 85 | 98 | inhibition in vivo at 10 mg/kg (Rattus norvegicus [4]): 84%
O=c1ccc(S(=O)(=O)c2ccc(F)cc2F)n[nH]1 | 870 |  |  |  | 
O=c1ccc(S(=O)(=O)c2ccc(Cl)cc2)n[nH]1 | 380 | 52 |  |  | inhibition in vivo at 10 mg/kg (Rattus norvegicus [4]): 65%
O=S(=O)(Cc1ccccc1C(F)(F)F)c1ccc(O)nn1 | 500 |  |  |  | 
Cc1ccc2oc(S(=O)(=O)c3ccc(O)nn3)c(C)c2c1 | 13 | 18 |  |  | inhibition in vivo at 10 mg/kg (Rattus norvegicus [4]): 21%
O=S(=O)(Cc1ccccc1Cl)c1ccc(O)nn1 | 118 |  |  |  | 
O=c1ccc(S(=O)(=O)c2cccc(Cl)c2Cl)n[nH]1 | 55 |  |  | 98 | inhibition in vivo at 5 mg/kg (Rattus norvegicus [13]): 55%; inhibition in vivo at 10 mg/kg (Rattus norvegicus [4]): 77%; inhibition in vivo at 5 mg/kg (Rattus norvegicus [14]): 81%; inhibition in vivo at 20 mg/kg (Rattus norvegicus [8]): 89%
O=c1ccc(S(=O)(=O)Cc2c(Cl)cccc2Cl)n[nH]1 | 52 | 24 |  |  | inhibition in vivo at 10 mg/kg (Rattus norvegicus [4]): 42%
O=S(=O)(c1ccc(O)nn1)c1ccc(Cl)cc1Cl |  |  |  |  | ED50 (Rattus norvegicus [19]): 0.8 mg/kg; ED50 (Rattus norvegicus [20]): 3 mg/kg
Cc1c(S(=O)(=O)c2ccc(O)nn2)sc2ccc(Cl)cc12 | 55 | 51 |  |  | inhibition in vivo at 3 mg/kg (Rattus norvegicus [21]): 29%; inhibition in vivo at 3 mg/kg (Rattus norvegicus [22]): 49%; inhibition in vivo at 10 mg/kg (Rattus norvegicus [4]): 83%
O=c1ccc(S(=O)(=O)c2oc3ccccc3c2-c2ccccc2)n[nH]1 | 23 |  |  |  | 
O=S(=O)(c1ccc(O)nn1)c1ccccc1Br |  |  |  |  | inhibition in vivo at 50 mg/kg (Rattus norvegicus [6]): 55%
O=S(=O)(c1ccc(O)nn1)c1oc2ccccc2c1-c1ccc(F)cc1 | 49 | 50 |  |  | inhibition in vivo at 10 mg/kg (Rattus norvegicus [4]): 66%
O=S(=O)(Cc1ccccc1F)c1ccc(O)nn1 | 422 |  |  |  | 
O=c1ccc(S(=O)(=O)c2cc3ccccc3o2)n[nH]1 |  | 34 |  |  | 
O=S(=O)(c1ccc(O)nn1)c1ccc(Br)cc1F |  | 67 |  |  | inhibition in vivo at 10 mg/kg (Rattus norvegicus [4]): 81%
O=c1ccc(S(=O)(=O)c2cc3ccc(Cl)cc3[nH]2)n[nH]1 | 645 |  |  |  | 
O=c1ccc(S(=O)(=O)c2c(Cl)cccc2Cl)n[nH]1 | 50 |  |  |  | inhibition in vivo at 30 mg/kg (Rattus norvegicus [23]): 81%; inhibition in vivo at 20 mg/kg (Rattus norvegicus [24]): 75%
O=c1ccc(S(=O)(=O)c2cc(Cl)ccc2Cl)n[nH]1 | 73 |  |  |  | inhibition in vivo at 10 mg/kg (Rattus norvegicus [25]): 36%; inhibition in vivo at 20 mg/kg (Rattus norvegicus [26]): 67%; inhibition in vivo at 10 mg/kg (Rattus norvegicus [27]): 65%; inhibition in vivo at 20 mg/kg (Rattus norvegicus [28]): 79%
O=S(=O)(c1ccc2ccccc2c1)c1ccc(O)nn1 | 360 |  |  |  | Inhibition (Rattus norvegicus [9]): 51%; inhibition in vivo at 20 mg/kg (Rattus norvegicus [8]): 74%
